From patent publication US20100190727A1, “USE OF MONOSACCHARIDES AND COMPOSITION THEREFOR” (L'OREAL, priority 2008, published 2010)

How the values were obtained:
type I procollagen = assay: Synthesis of procollagen 1 in the dermis of reconstructed skin (indirect immunofluorescence); format: cell-based, human; conditions: for procollagen 1 synthesis: reconstructed skin
Description: (§1) Briefly, the model of reconstructed skin used is that described by Bell et al. (Bell E. et al., The reconstitution of living skin, J. Invest. Dermatol., 1983, July; 81): it includes a dermal equivalent on which is reconstructed a multistratified epidermis; the dermal equivalent is manufactured from acid-soluble collagen, culture medium containing serum and normal adult human fibroblasts. After 5 days of shrinkage, this equivalent is inoculated with keratinocytes and then cultured for 6 days in immersion and for 7 days in emersion in order to obtain a multistratified and differentiated epidermis having a horny layer.
Conventional detection via indirect immunofluorescence of type I procollagen in the dermis of the reconstructed skin was also performed on other series of frozen sections (anti-procoll 1 antibody (MAB 1912 Millipore)+FTIC-coupled conjugate (112-095-068 Jackson Immunoresearch)). In order to obtain bearings within the cutaneous architecture during the microscopic examination of the sections, the cell nuclei of the keratinocytes and fibroblasts are localized by staining them with propidium iodide, as described above. Three frozen sections are prepared at random on each reconstructed skin and on each section, and two microscopic fields (25× objective lens) are analysed by fluorescence microscopy and photographed. The levels of fluorescence proportional to the amount of type I procollagen are compared between the control skin and the skin treated with rhamnose.

[1] = tested on: dermal fibroblasts of the reconstructed skin; assay: Proliferation of dermal fibroblasts in whole reconstructed skin (propidium iodide nuclei count on frozen sections); format: cell-based, human; conditions: 5 mM, 48 hours of treatment, reconstructed skin versus control skin
Description: Rhamnose was studied on a model of whole reconstructed skin in order to measure its anti-ageing efficacy on the dermal compartment.
as §1
The reconstructed skin is treated with 5 mM rhamnose for 2 days and 5 days in the culture medium; after the treatment, the reconstructed skins are included in Tissue Tek in order to produce frozen sections 7 μm thick with a cryostat. […] Three frozen sections are prepared at random on each reconstructed skin; on each section, two microscopic fields (25× objective lens) are analysed by fluorescence microscopy and photographed. The dermal fibroblasts are thus counted for each reconstructed skin on six images in total representing the six microscopic fields considered. […]

[2] = tested on: keratinocytes (HaCat line); assay: Proliferation of keratinocytes (HaCat line) in culture medium deficient in growth factors; Cyquant, Nile red and XTT probes; format: cell-based
Description: The keratinocytes (HaCat line) are cultured under two conditions: whole defined culture medium (standard condition) and culture medium deficient in growth factors. This deficient medium gives rise to a controlled delay in cell proliferation. Under these conditions, it is then possible to measure the effects of compounds capable of compensating for the deficiency in growth factors of the culture medium and thus of relaunching the cell multiplication and/or of stimulating cell metabolism.
The keratinocyte proliferation is measured by means of three markers on the same cell population: the level of DNA, which is proportional to the number of cells (Cyquant probe), the level of constituent polar lipids of cell membranes (Nile red probe) and the mitochondrial respiration, which reflects the general cell metabolism (XTT probe).

[3] = 1 mM, medium depleted in growth factors, versus untreated control

## C[C@H](O)[C@H](O)[C@@H](O)[C@@H](O)C=O [rhamnose]
Type I procollagen; 1 mM for 120 hours, reconstructed skin versus control skin
  green fluorescence proportional to the amount of type I procollagen: marked increase in green fluorescence
Type I procollagen; 1 mM
  procollagen 1 synthesis: stimulation of procollagen 1 synthesis
Type I procollagen; 5 mM
  procollagen 1 synthesis: stimulation of procollagen 1 synthesis
[1]
  growth of the dermal fibroblasts: induces stimulation of growth
[2]; 500 μM, medium depleted in growth factors
  efficacy on keratinocyte proliferation markers: already show efficacy
[2]; [3]
  level of DNA (Cyquant): significantly increased
  level of polar lipids (Nile red signal): significantly increased
  mitochondrial respiration (XTT signal): significantly increased
[2]; HaCat keratinocytes cultured in medium depleted in growth factors, versus untreated control
  keratinocyte proliferation: activate keratinocyte proliferation
